Measured values: patent publication US5360803A, “Composition and method for treating cancer” (Dan Farber Cancer Institute, priority 1992, dated 1994)
Read-outs that look alike come from different tables or passages of the source.

Columns and labels:
CV-1 cells = experiment: selective killing assay, colony number reduced to 50% of control, normal monkey kidney epithelial cell line CV-1; type: cell-based; conditions: 24 hours treatment; for IC50: Primates
Excerpt: (§1) The control received culture media only.

human melanoma LOX = experiment: survival of nude mice implanted with human melanoma LOX; type: in vivo, male athymic Swiss nu/nu mouse (human tumor)
Protocol: LOX, a human melanoma cell line, grown subcutaneously in nude mice was excised, trypsinized to yield a single cell suspension using a metal grid with a […] mesh. […] Five million viable trypan blue negative cells made up in 0.1 ml of Dulbecco modified Eagle medium (DMFE) were injected into the peritoneal cavity of a male athymic Swiss nu/nu mouse. The control group and each treatment group consisted of 5 to 10 mice. Treatment was commenced the following day by intraperitoneal injection.
Ten control mice received 0.25 ml of 2% dextrose on these days the treated groups were injected with the compounds of this invention. […] T/C is the ratio, expressed as a percentage of the mean survival age of the treated group to the mean survival age of the untreated control group.

LOX cells = experiment: colony assay of Example 1 with human melanoma LOX cell line; type: cell-based; conditions: for Selectivity: CV-1/LOX; for IC50: Homo sapiens, LOX, 24 h; for IC50 / LOX(IC50): Table V, human melanoma, 24 hours treatment;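 as to all read-outs here: colony formation assay with 24 h exposure at 37 °C, then 7 to 10 days of regrowth, crystal violet staining of colonies, control wells given medium alone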
Protocol: (§2) Human colon carcinoma cell line CX-1 or normal monkey kidney epithelial cell line CV-1 was chosen as representatives of cancer cells and normal cells, respectively. […] CX-1 cells (2,000 cells/well) and CV-1 cells (1,000 cells/well) were plated in 24-well plastic culture plates. […] The control received culture media only. Cells were treated with compounds of General Formulas (I) to (V) at 37° C. for 24 hours. After rinsing with fresh culture medium three times, the cells were further incubated at 37° C. for 7 to 10 days. Cell colonies were fixed and stained with 2% crystal violet in 70% ethanol for 10 minutes and rinsed in water. […] The selectivity is defined as the ratio of IC50 for CV-1 and IC50 for CX-1.

CX-1 cells = experiment: selective killing assay, colony number reduced to 50% of control, human colon carcinoma cell line CX-1; type: cell-based; conditions: for Selectivity (ratio of IC50 for CV-1 and IC50 for CX-1): CV-1/CX-1; for IC50: Homo sapiens, CX-1, Table III; for IC50 / CX-1 (IC50): human colon carcinoma, 24 hours treatment, colony count after 7 to 10 days; for CX-1 (IC50): Table III;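 as to all read-outs here: colonies stained with crystal violet and counted, control cells given medium alone, exposure at 37 °C, normal monkey kidney epithelial CV-1 cells as the non-cancer comparator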
EJ cells = experiment: colony assay of Example 1 with human bladder carcinoma EJ cell line; type: cell-based; conditions: for Selectivity: CV-1/EJ; for IC50: Homo sapiens, EJ, 24 h; for IC50 / EJ (IC50): Table IV, human bladder carcinoma, 24 hours treatment;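 as to all read-outs here: colony formation assay with 24 h compound exposure at 37 °C, then 7–10 days drug-free regrowth, colonies stained with crystal violet, controls given medium alone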
MCF-7 cells = experiment: colony assay of Example 1 with human breast carcinoma MCF-7 cell line; type: cell-based; conditions: for Selectivity: CV-1/MCF-7; for IC50: Homo sapiens, MCF7, 24 h, Table VI, human breast carcinoma, 24 hours treatment
Excerpt: as §1

CRL 1420 cells = experiment: colony assay of Example 1 with human pancreatic carcinoma CRL 1420 cell line; type: cell-based; conditions: for Selectivity: CV-1/CRL-1420; for IC50: Homo sapiens, 24 h; for IC50 / CRL-1420(IC50): Table VII, human pancreatic carcinoma, 24 hours treatment;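 as to all read-outs here: colony formation assay, cells exposed for 24 h then regrown 7 to 10 days without compound, colonies stained with crystal violet, control given medium alone, normal reference CV-1 monkey kidney epithelial cells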
Protocol: as §2

[1] = CV-1, Table III, normal monkey kidney epithelial cells, colony count after 7 to 10 days
[2] = Mus musculus, ip, 24 h, 5 mg/kg i.p. on day 1, 4, 8, 11, read-out: T/C
[3] = Table III, normal monkey kidney epithelial cells, colony count after 7 to 10 days
[4] = 5 mg/kg i.p. on day 1, 4, 8, 11
[5] = Mus musculus, ip, 24 h, 10 mg/kg i.p. on day 1, 4, 8, 10, 12, read-out: T/C

SMILES	IC50 (CV-1 cells; CV-1, 24 h, Table V) [µg/mL]	Selectivity (LOX cells)	IC50 (LOX cells) [µg/mL]	Selectivity (ratio of IC50 for CV-1 and IC50 for CX-1) (CX-1 cells)	IC50 (CX-1 cells) [µg/mL]	IC50 (CV-1 cells; CV-1, 24 h, Table IV) [µg/mL]	IC50 (CV-1 cells; [1]) [µg/mL]	Selectivity (EJ cells)	IC50 (EJ cells) [µg/mL]	Selectivity (CRL 1420 cells)	also measured
CCn1c(=Cc2scc(C)[n+]2CC)sc(=C2Sc3ccccc3N2C)c1=O [Compound 339]	10	333	0.03								response vs control in vivo at 5 mg/kg (human melanoma LOX; Mus musculus, ip, 24 h, 5 mg/kg i.p. on day 1, 4, 8, 10, 12, read-out: T/C): > 340%
CCn1c(=Cc2oc3ccccc3[n+]2C)oc(=C2Sc3ccccc3N2C)c1=O [Compound 11]	> 30	> 300	< 0.1	> 667	0.03	> 20	> 20	> 400	0.05		response vs control in vivo at 5 mg/kg (human melanoma LOX; [2]): 132%
CCn1c(=Cc2oc3c4ccccc4ccc3[n+]2CC)sc(=C2Oc3ccc4ccccc4c3N2C)c1=O [Compound 254]	6	1200	0.005	120		6		600	0.01	1200	CX-1 (IC50) (CX-1 cells): 0.05 µg/mL; IC50 (CV-1 cells; CV-1, 24 h, Table VI): 6 µg/mL; IC50 (CV-1 cells; CV-1, 24 h, Table VII): 6 µg/mL; Selectivity (MCF-7 cells): 200; IC50 (MCF-7 cells): 0.03 µg/mL; IC50 (CRL 1420 cells): 0.005 µg/mL
CCn1c(=Cc2oc3ccccc3[n+]2C)sc(=C2Sc3ccccc3N2C)c1=O [Compound 14]		> 300		667				400		400	CX-1 (IC50) (CX-1 cells): 0.03 µg/mL; CV-1 (IC50) (CV-1 cells; [3]): 20 µg/mL; CV-1 (IC50) (CV-1 cells; Table IV): 20 µg/mL; CV-1 (IC50) (CV-1 cells; Table V): > 30 µg/mL; CV-1 (IC50) (CV-1 cells; Table VII): 20 µg/mL; T/C (human melanoma LOX; [4]): 147%; EJ (IC50) (EJ cells): 0.05 µg/mL; LOX(IC50) (LOX cells): < 0.1 µg/mL; CRL-1420(IC50) (CRL 1420 cells): 0.05 µg/mL
CCn1c(=Cc2oc3cc4ccccc4cc3[n+]2CC)sc(=C2C=Cc3ccccc3N2C)c1=O [Compound 227]	8	267	0.03	100	0.08	8	8	160	0.05	160	IC50 (CV-1 cells; CV-1, 24 h, Table VI): 8 µg/mL; IC50 (CV-1 cells; CV-1, 24 h, Table VII): 8 µg/mL; Selectivity (MCF-7 cells): 160; IC50 (MCF-7 cells): 0.05 µg/mL; IC50 (CRL 1420 cells): 0.05 µg/mL
CCn1c(=Cc2sc3ccc4ccccc4c3[n+]2CC)sc(=C2Oc3ccc4ccccc4c3N2C)c1=O [Compound 116]											IC50 (CV-1 cells; CV-1, 24 h, Table VI): 6 µg/mL; Selectivity (MCF-7 cells): 150; IC50 (MCF-7 cells): 0.04 µg/mL
CCn1c(=Cc2sc3ccc4ccccc4c3[n+]2CC)sc(=C2Sc3ccccc3N2C)c1=O [Compound 338]	2	400	0.005								response vs control in vivo at 4 mg/kg (human melanoma LOX; Mus musculus, ip, 24 h, 4 mg/kg i.p. on day 1, 3, 4, 6, 8, 10, 13, read-out: T/C): 194%
CCn1c(=Cc2sc3c4ccccc4ccc3[n+]2CC)sc(=C2Sc3ccc4ccccc4c3N2C)c1=O [Compound 204]		222		667						500	CX-1 (IC50) (CX-1 cells): 0.03 µg/mL; CV-1 (IC50) (CV-1 cells; [3]): 20 µg/mL; CV-1 (IC50) (CV-1 cells; Table V): 20 µg/mL; CV-1 (IC50) (CV-1 cells; Table VII): 20 µg/mL; response vs control in vivo at 10 mg/kg (human melanoma LOX; [5]): > 270%; LOX(IC50) (LOX cells): 0.09 µg/mL; CRL-1420(IC50) (CRL 1420 cells): 0.04 µg/mL
CCn1c(=Cc2oc3ccccc3[n+]2C)sc(=C2Sc3ccccc3N2C)c1=O [Compound 15]		286		1000				100		500	CX-1 (IC50) (CX-1 cells): 0.02 µg/mL; CV-1 (IC50) (CV-1 cells; [3]): 20 µg/mL; CV-1 (IC50) (CV-1 cells; Table IV): 20 µg/mL; CV-1 (IC50) (CV-1 cells; Table V): 20 µg/mL; CV-1 (IC50) (CV-1 cells; Table VII): 20 µg/mL; T/C (human melanoma LOX; [4]): 163%; EJ (IC50) (EJ cells): 0.2 µg/mL; LOX(IC50) (LOX cells): 0.07 µg/mL; CRL-1420(IC50) (CRL 1420 cells): 0.04 µg/mL
CCn1c(=Cc2oc3cc4ccccc4cc3[n+]2CC)sc(=C2Sc3ccccc3N2C)c1=O [Compound 22]	10	100	0.1	1000	0.01	20	10	100	0.2		response vs control in vivo at 5 mg/kg (human melanoma LOX; [2]): 179%
CCn1c(=Cc2cccc[n+]2CC)sc(=C2Oc3c(ccc4ccccc34)N2C)c1=O [Compound 214]	20	500	0.04								response vs control in vivo at 10 mg/kg (human melanoma LOX; [5]): > 300%
CCn1c(=Cc2oc3c4ccccc4ccc3[n+]2CC)sc(=C2Sc3ccc4ccccc4c3N2C)c1=O [Compound 85]		> 600	< 0.01	750	0.008		6	857	0.007	600	response vs control in vivo at 5 mg/kg (human melanoma LOX; Mus musculus, ip, 24 h, 5 mg/kg i.p. on day 1, 4, 8, 11, 15, read-out: T/C): 174%; IC50 (CRL 1420 cells): 0.01 µg/mL
CCn1c(=Cc2sc3ccccc3[n+]2CC)sc(=C2Sc3ccc4ccccc4c3N2C)c1=O [Compound 310]	2	400	0.005			2		400	0.005	400	IC50 (CV-1 cells; CV-1, 24 h, Table VII): 2 µg/mL; response vs control in vivo at 8 mg/kg (human melanoma LOX; Mus musculus, ip, 24 h, 8 mg/kg i.p. on day 1, 3, 4, 6, 8, 10, read-out: T/C): 206%; IC50 (CRL 1420 cells): 0.005 µg/mL
CCn1c(=Cc2oc3c4ccccc4ccc3[n+]2CC)sc(=C2Sc3ccc4ccccc4c3N2C)c1=O [Compound 315]		4000						4000		4000	IC50 (CV-1 cells; CV-1, 24 h, Table VI): 20 µg/mL; Selectivity (MCF-7 cells): 400; IC50 (MCF-7 cells): 0.05 µg/mL; EJ (IC50) (EJ cells): 0.005 µg/mL; LOX(IC50) (LOX cells): 0.005 µg/mL; CRL-1420(IC50) (CRL 1420 cells): 0.005 µg/mL
CCn1c(=Cc2sc3ccc(Cl)cc3[n+]2CC)sc(=C2Sc3ccc4ccccc4c3N2C)c1=O [Compound 94]				400	0.05		20				response vs control in vivo at 10 mg/kg (human melanoma LOX; Mus musculus, ip, 24 h, 10 mg/kg i.p. on day 1, 3, 6, 8, 10, 13, 15, read-out: T/C): 161%
CCn1c(=Cc2cc[n+](CC)c3ccccc23)sc(=C2Sc3ccc4ccccc4c3N2C)c1=O [Compound 90]				200	0.04		8				response vs control in vivo at 5 mg/kg (human melanoma LOX; Mus musculus, ip, 24 h, 5 mg/kg i.p. on day 1, 8, 13, read-out: T/C): 163%
